{
  "source": "patent EP1608650B1",
  "about": "“PYRENE-LINKED PYRROLO(2,1-C)(1,4)BENZODIAZEPINE DERIVATIVES USEFUL AS ANTICANCER AGENTS” (Council of Scientific and Industrial Research, priority 2003, dated 2004)",
  "key": {"[1]": {"test_system": "(Breast) MCF7", "assay": "In vitro one dose primary anticancer assay (NCI)", "format": "cell-based, human", "settings": "one dose at 10^-4 molar concentration"}, "[2]": {"test_system": "(CNS) SF-268", "assay": "In vitro one dose primary anticancer assay (NCI)", "format": "cell-based, human", "settings": "one dose at 10^-4 molar concentration"}, "[3]": {"test_system": "(Lung) NCI-H460", "assay": "In vitro one dose primary anticancer assay (NCI)", "format": "cell-based, human", "settings": "one dose at 10^-4 molar concentration"}, "[4]": {"test_system": "human tumour cell lines", "assay": "cells", "procedure": "(§1) In vitro biological activity studies were carried out at National Cancer Institute (USA).\n(§2) For each compound, dose response curves for each cell line were measured at a minimum of five concentrations at 10 fold dilutions. A protocol of 48 h continuous drug exposure was used and a sulforhodamine B (SRB) protein assay was used to estimate cell viability or growth. […]"}, "[5]": {"test_system": "prostate cancer (DU-145)", "settings": "read-out: potency (at the LC50 level)", "procedure": "as §1, §2"}, "[6]": {"test_system": "colon cancer (HCC-2998)", "settings": "read-out: potency (at the LC50 level)", "procedure": "as §1, §2"}, "[7]": {"test_system": "renal cancer (A498)", "settings": "read-out: potency (at the LC50 level)", "procedure": "as §1, §2"}, "[8]": {"test_system": "leukemia cancer (SR)", "settings": "read-out: potency (at the LC50 level)", "procedure": "as §1, §2"}, "[9]": {"test_system": "non-small cell lung cancer (NCI-H226)", "settings": "read-out: potency (at the LC50 level)", "procedure": "as §1, §2"}, "[10]": {"test_system": "melanoma cancer (M14)", "settings": "read-out: potency (at the LC50 level)", "procedure": "as §1, §2"}, "[11]": {"test_system": "CNS cancer cell lines (SNB75)", "settings": "read-out: potency (at the LC50 level)", "procedure": "as §1, §2"}, "[12]": {"test_system": "Melanoma", "settings": "average of six to nine different cancer cell lines, log value", "procedure": "as §1, §2\n(§3) Each cancer type represents the average of six to nine different cancer cell lines."}, "[13]": {"test_system": "Prostate", "settings": "average of six to nine different cancer cell lines, log value", "procedure": "as §1, §2, §3"}, "[14]": {"test_system": "CNS", "settings": "average of six to nine different cancer cell lines, log value", "procedure": "as §1, §2, §3"}, "[15]": {"test_system": "Ovarian", "settings": "average of six to nine different cancer cell lines, log value", "procedure": "as §1, §2, §3"}, "[16]": {"test_system": "Renal", "settings": "average of six to nine different cancer cell lines, log value", "procedure": "as §1, §2, §3"}, "[17]": {"test_system": "Non-small-cell lung", "settings": "average of six to nine different cancer cell lines, log value", "procedure": "as §1, §2, §3"}, "[18]": {"test_system": "Leukemia", "settings": "average of six to nine different cancer cell lines, log value", "procedure": "as §1, §2, §3"}, "[19]": {"test_system": "Colon", "settings": "average of six to nine different cancer cell lines, log value", "procedure": "as §1, §2, §3"}, "[20]": {"test_system": "Breast", "settings": "average of six to nine different cancer cell lines, log value", "procedure": "as §1, §2, §3"}},
  "data": [
    {"molecule": "7-Methoxy-8-[N-(1\"-pyrenyl)-butne-4'-carboxamide]-oxy-(11aS)-1,2,3,11a-tetra-hydro-5H-pyrrolo[2,1-c][1,4]benzodiazepin-5-one [Vg]", "values": [
      {"measurement": "Growth percentages (Breast) MCF7", "setting": "[1]", "result": 72},
      {"measurement": "Growth percentages (CNS) SF-268", "setting": "[2]", "result": 131},
      {"measurement": "Growth percentages (Lung) NCI-H460", "setting": "[3]", "result": 106}
    ]},
    {"molecule": "COc1cc2c(cc1OCCCC(=O)Nc1ccc3ccc4cccc5ccc1c3c45)N=C[C@@H]1CCCN1C2=O", "note": "[Ve, 7-Methoxy-8-[N-(1\"-pyrenyl)-propane-3'-carboxamide]-oxy-(11aS)-1,2,3,11atetra-hydro-5H-pyrrolo[2,1-c][1,4]benzodiazepin-5-one]", "values": [
      {"measurement": "GI50", "setting": "[4]; Homo sapiens, 48 h, read-out: Log10 GI50 (converted)", "result": 17.8, "unit": "nM"},
      {"measurement": "Log10 LC50", "setting": "[4]; mean graph midpoint (MG_MID), 48 h continuous drug exposure, 50% cell death", "result": -4.74},
      {"measurement": "Log10 TGI", "setting": "[4]; mean graph midpoint (MG_MID), 48 h continuous drug exposure, total cell growth inhibition", "result": -6.89},
      {"measurement": "Growth percentages (Breast) MCF7", "setting": "[1]", "result": 31},
      {"measurement": "Growth percentages (CNS) SF-268", "setting": "[2]", "result": 70},
      {"measurement": "Growth percentages (Lung) NCI-H460", "setting": "[3]", "result": 11},
      {"measurement": "CC50", "setting": "[5]", "result": 10000, "unit": "nM"},
      {"measurement": "CC50", "setting": "[6]", "result": 10, "unit": "nM"},
      {"measurement": "CC50", "setting": "[7]", "result": 100, "unit": "nM"},
      {"measurement": "CC50", "setting": "[8]", "result": 100, "unit": "nM"},
      {"measurement": "CC50", "setting": "[9]", "result": 10, "unit": "nM"},
      {"measurement": "CC50", "setting": "[10]", "result": 100, "unit": "nM"},
      {"measurement": "CC50", "setting": "[11]", "result": 10000, "unit": "nM"},
      {"measurement": "Log LC50 (concentration in mol/L causing 50% lethality)", "setting": "[12]", "result": -5.62, "unit": "mol/L"},
      {"measurement": "Log LC50 (concentration in mol/L causing 50% lethality)", "setting": "[13]", "result": -5.30, "unit": "mol/L"},
      {"measurement": "Log LC50 (concentration in mol/L causing 50% lethality)", "setting": "[14]", "result": -5.23, "unit": "mol/L"},
      {"measurement": "Log LC50 (concentration in mol/L causing 50% lethality)", "setting": "[15]", "result": "> -4.00", "unit": "mol/L"},
      {"measurement": "Log LC50 (concentration in mol/L causing 50% lethality)", "setting": "[16]", "result": -5.05, "unit": "mol/L"},
      {"measurement": "Log LC50 (concentration in mol/L causing 50% lethality)", "setting": "[17]", "result": -4.67, "unit": "mol/L"},
      {"measurement": "Log LC50 (concentration in mol/L causing 50% lethality)", "setting": "[18]", "result": -4.65, "unit": "mol/L"},
      {"measurement": "Log LC50 (concentration in mol/L causing 50% lethality)", "setting": "[19]", "result": -5.00, "unit": "mol/L"},
      {"measurement": "Log LC50 (concentration in mol/L causing 50% lethality)", "setting": "[20]", "result": "> -4.00", "unit": "mol/L"}
    ]}
  ]
}
